From patent publication US20050124620A1, “Pharmaceutical compounds” (priority 2002, published 2005)
pIC50: −log10 of the molar value.

Columns and labels:
[1] = molecular target: α p38 (Homo sapiens, UniProt Q16539); assay: p38 MAP kinase inhibitory activity (33P-ATP / myelin basic protein filter assay); format: biochemical; details: for pIC50: MKK6-activated α p38, MBP substrate
Experimental: Compounds of the invention were tested for p38 MAP kinase inhibitory activity using the following protocol.
The reaction was allowed to proceed for fifty minutes before being stopped with an excess of ortho-phosphoric acid (30 μl at 2%). γ^33 P-ATP which remained unincorporated into the myelin basic protein was separated from phoshorylated MBP on a Mlipore (RTM) MAPH filter plate. The wells of the MAPH plate were wetted with 0.5% orthophosphoric acid, and then the results of the reaction were filtered with a Millipore vacuum filtration unit through the wells. Following filtration, the residue was washed twice with 200 μl of 0.5% orthophosphoric acid. Once the filters had dried, […] of Microscint 20™ scintillant was added, and then counted on a Packard Topcount™ counter for 30 seconds. The percentage inhibition of the p38 activity was calculated and plotted in order to determine the concentration of the test compound required to inhibit 50% of the p38 activity (IC50).

[2] = tested on: THP-1 cells; assay: Inhibition of LPS-induced TNF-α production in THP-1 cells, in vitro assay; format: cell-based; details: Homo sapiens; PMA-treated THP-1 cells, 1 μg/ml LPS, 6 h, TNF-α by ELISA
Experimental: The ability of the compounds of this invention to inhibit the TNF-α release was determined using a rninor modification of the methods described in Rawlins P., et al., “Inhibition of endotoxin-induced TNF-α production in macrophages by 5Z-7-oxo-zeaenol and other fungal resorcyclic acid lactones,” International J. of Immunopharmacology, 21, 799, (1999).
THP-1 cells, human monocytic leukaemic cell line, ECACC) were maintained in culture medium [RPMI 1640 (Invitrogen) and 2 mM L-Glutamine supplemented with 10% foetal bovine serum (Invitrogen)] at approximately 37° C. in humidified 5% CO2 in stationary culture. TBP-1 cells were suspended in culture medium containing 50 ng/ml PMA (SIGMA), seeded into a 96-well tissue culture plate (IWAKI) at 1×10^5 cells/well (100 μl/well) and incubated as described above for approximately 48 h. The medium was then aspirated, the wells washed twice in Phosphate Buffered Saline and 1 μg/ml LPS (SIGMA) in culture medium was added (200 μl/well).
Test compounds were reconstituted in DMSO (SIGMA) and then diluted with the culture medium such that the final DMSO concentration was 0.1%. […] Culture supernatants were collected and the amount of human TNF-α present was determined by ELISA (R&D Systems) performed according to the manufacturer's instructions. […]

α p38, sequence (Q16539 whole entry): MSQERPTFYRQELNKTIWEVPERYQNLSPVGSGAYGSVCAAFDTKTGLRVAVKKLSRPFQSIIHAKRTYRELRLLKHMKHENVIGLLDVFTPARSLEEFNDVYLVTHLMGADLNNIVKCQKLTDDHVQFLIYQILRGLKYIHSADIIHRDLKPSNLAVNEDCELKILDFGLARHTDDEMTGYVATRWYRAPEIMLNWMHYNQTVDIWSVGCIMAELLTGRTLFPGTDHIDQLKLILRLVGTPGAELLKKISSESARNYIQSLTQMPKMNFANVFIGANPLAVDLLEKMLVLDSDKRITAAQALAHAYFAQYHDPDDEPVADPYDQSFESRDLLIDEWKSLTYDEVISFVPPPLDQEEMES

Row | Compound | pIC50 ([1]; 50 min reaction) | also measured
1 | 3-(2-(4-Pyridyl)ethyl-7-azaindole [Example 12] | 3.75 | –
2 | c1ccc2c(CCc3ccncc3)c[nH]c2c1 [Example 1, 3-(2-(4-Pyridyl)ethyl)indole] | 4.48 | –
3 | Cn1cc(CCc2ccncc2)c2ccccc21 [Example 2, 1-Methyl-3-(2-(4-pyridyl)ethyl)indole] | 3.62 | –
4 | c1ccc(CCc2c[nH]c3ccccc23)nc1 [Example 3, 3-(2-(2-Pyridyl)ethyl)indole] | 3.09 | –
5 | Cc1ccc2[nH]cc(CCc3ccncc3)c2c1 [Example 4, 5-Methyl-3-(2-(4-pridyl)ethyl)indole] | 3.60 | –
6 | Clc1ccc2[nH]cc(CCc3ccncc3)c2c1 [Example 5, 5-Chloro-3-(2-(4-pyridyl)ethyl)indole] | 3.91 | –
7 | O=[N+]([O-])c1ccc2[nH]cc(CCc3ccncc3)c2c1 [Example 6, 5-Nitro-3-(2-(4-pyridyl)ethyl)indole] | 3.52 | –
8 | CC(=O)Nc1ccc2[nH]cc(CCc3ccncc3)c2c1 [Example 7, 5-Acetamido-3-(2-(4-pyridyl)ethyl)indole] | 3.19 | –
9 | Cc1[nH]c2ccccc2c1CCc1ccncc1 [Example 8, 2-Methyl-3-(2-(4-pyridyl)ethyl)indole] | 3.57 | –
10 | Cc1cccc2[nH]cc(CCc3ccncc3)c12 [Example 9, 4-Methyl-3-(2-(4-pyridyl)ethyl)indole] | 3.95 | –
11 | Cc1cccc2c(CCc3ccncc3)c[nH]c12 [Example 10, 7-Methyl-3-(2-(4-pyridyl)ethyl)indole] | 4.46 | –
12 | Fc1cccc2[nH]cc(CCc3ccncc3)c12 [Example 11, 4-Fluoro-3-(2-(4-pyridyl)ethyl)indole] | 4.35 | –
13 | O=C(Nc1ccc2[nH]cc(CCc3ccncc3)c2c1)c1ccccc1 [Example 13B, 5-Benzamido-3-(2-(pyrid-4-yl)ethyl)indole] | 4.40 | –
14 | O=C(Nc1ccc2[nH]cc(CCc3ccncc3)c2c1)c1cc(F)cc(N2CCOCC2)c1 [Example 14B, 5-(3-Fluoro-5-(4-morpholino)benzamido)-3-(2-(4-pyridyl)ethyl)indole] | – | pIC50 ([1]; unit stated in cell): 6.30; pIC50 [2]: 6.28
15 | O=C(Nc1ccc2c(CCc3ccncc3)c[nH]c2c1)c1cc(F)cc(N2CCOCC2)c1 [Example 15B, 6-(3-Fluoro-5-(4-morpholino)benzamido)-3-(2-(4-pyridyl)ethyl)indole] | – | inhibition at 3 µM ([1]; @ 3 μM, read-out: percentage inhibition of the p38 activity): 36%
16 | c1ccc2c(c1)ccn2CCc1ccncc1 [Example 19, 1-(2-(4-pyridyl)ethyl)indole] | 3.70 | –
17 | Nc1ccc2[nH]cc(CCc3ccncc3)c2c1 [Example 20A, 5-Amino-3-(2-(4-pyridyl)ethyl)indole] | – | inhibition at 1000 µM ([1]; @ 1 mM, read-out: percentage inhibition of the p38 activity): 23%
18 | Clc1nccc(CCc2c[nH]c3ccccc23)n1 [Example 22, 3-(2-(2-Chloro-4-pyrimidinyl)ethyl)indole] | 3.92 | –
19 | O=C1c2ccccc2C(=O)N1c1ccc2[nH]cc(CCc3ccncc3)c2c1 [Example 24B, 5-(1-Phthalimido)-3-(2-(4-pyridyl)ethyl)indole] | – | inhibition at 300 µM ([1]; @ 300 μM, read-out: percentage inhibition of the p38 activity): 25%
20 | O=C(Nc1ccc2[nH]cc(CCc3ccncc3)c2c1)c1ccc(N2CCCC2=O)cc1 [Example 26, 5-(4-(2-oxo-pyrrolidin-1-yl)benzamido)-3-(2-(4-pyridyl)ethyl)indole] | – | inhibition at 1 µM ([1]; @ 1 μM, read-out: percentage inhibition of the p38 activity): 28%
21 | OCCNc1nccc(CCc2c[nH]c3ccccc23)n1 [Example 27] | 4.42 | –
22 | CC(C)(CO)Nc1nccc(CCc2c[nH]c3ccccc23)n1 [Example 28, 3-(2-(2-(3-Hydroxy-2-methyl-prop-2-ylamino)-4-pyrimidinyl)ethyl)indole] | 5.82 | –
23 | C[C@H](Nc1nccc(CCc2c[nH]c3ccccc23)n1)c1ccccc1 [Example 29, 3-(2-(2-((S)-(−)-α-methylbenzylamino)-4-pyrimidinyl)ethyl)indole] | 5.52 | –
24 | C[C@@H](Nc1nccc(CCc2c[nH]c3ccccc23)n1)c1ccccc1 [Example 30, 3-(2-(2-((R)-(+)-α-methylbenzylamino)-4-pyrimidinyl)ethyl)idole] | 4.82 | –
25 | c1ccc2c(CCc3ccncn3)c[nH]c2c1 [Example 31, 3-(2-(4-Pyrimidinyl)ethyl)indole] | 3.15 | –
26 | CC(C)(C)c1cc(NC(=O)Nc2ccc3[nH]cc(CCc4ccncc4)c3c2)n(-c2ccccc2)n1 [Example 32, 5-(3-tert-Butyl-1-phenylpyrazol-5-ylcarbamoylamino)-3-(2-(4-pyridyl)ethyl)indole] | – | pIC50 ([1]; unit stated in cell): 6.84
27 | Cc1ccc(S(=O)(=O)n2cc(CCc3cccnc3)c3ccccc32)cc1 [Example 34, 1-[(4-Methylphenyl)sulphonyl]-3-(2-(3-pridyl)ethyl)indole] | – | pIC50 ([1]; unit stated in cell): < 3.00

Now from value to compound, other results behind:

Row | pIC50 ([1]; 50 min reaction) | Compound | also measured
28 | 5.70 | O=C(Nc1ccc2[nH]cc(CCc3ccncc3)c2c1)c1cccc(OC(F)(F)F)c1 [Example 16B, 5-(3-Trifluoromethoxybenzamido)-3-(2-(4-pyridy)ethyl)indole] | –
29 | 5.40 | O=C(Nc1ccc2[nH]cc(CCc3ccncc3)c2c1)c1cccc(C(F)(F)F)c1 [Example 17B] | –
30 | 5.52 | O=C(Nc1ccc2c(ccn2CCc2ccncc2)c1)c1cc(F)cc(N2CCOCC2)c1 [Example 18B, 5-(3-Fluoro-5-(4-morpholino)benzamido)-1-(2-(4-pyridyl)ethyl)indole] | –
31 | 4.55 | O=C(Nc1ccccc1)Nc1ccc2[nH]cc(CCc3ccncc3)c2c1 [Example 20B, 5-(Phenylcarbamoylamino)-3-(2-(4-pyridyl)ethyl)indole] | –
32 | 5.89 | O=C(Nc1ccc2[nH]cc(CCc3ccncc3)c2c1)c1ccnc(N2CCOCC2)c1 [Example 23B, 5-(2-(4-Morpholino)isonicotinamido)-3-(2-(4-pyridyl)ethyl)indole] | –
33 | 3.32 | Nc1ccc2ccn(CCc3ccncc3)c2c1 [Example 25A, 6-Amino-1-(2-(4-pyridyl)ethyl)indole] | –
